Source: PubChem BioAssay AID1918957 (Molecular Pharmacology Branch, DTP, NCI, 2023)
Where “and” joins values, the source holds several entries; their conditions need not be identical. Identical values can stand only once.

System: NCI-H1876 complex spheroid viability
Test: Anticancer human tumor NCI-H1876 cell line growth inhibition [LSD1];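 note: spheroids exposed to compounds for one week before readout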;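 for viability, T/C: 100% = DMSO vehicle-treated spheroids so lower means fewer viable cells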
Conditions: for viability, T/C: stronger effect = lower value
Procedure, shortened: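 Drug combinations with the LSD1 inhibitor iadademstat tested on tumor cells co-cultured as spheroids with endothelial cells and mesenchymal stem cells. Concentrations descended in half-log increments from clinical Cmax or 10 microM.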

[1] = curve of first compound, second compound 0.1 µM
[2] = curve of first compound, second compound 0.316 µM
[3] = curve of first compound, second compound 1 µM
[4] = curve of first compound, second compound 3.16 µM
[5] = curve of first compound, second compound 10 µM

Compound: COc1ccc([C@@H](O)c2cc(-c3ncnc4cc(N5CCOCC5)ccc34)c(F)cc2Cl)nn1 + NC1CC1c1ccc(-c2cccc(O)c2)cc1
- IC50 [1]: 1870 nM
- IC50 [2]: 1890 nM
- IC50 [3]: 1730 nM
- IC50 [4]: 1100 nM
- IC50 [5]: 546 nM
- viability, T/C (second compound 0.1 µM, first compound 0.0316 µM): 89.6%
- viability, T/C (second compound 0.1 µM, first compound 0.1 µM): 91.2%
- viability, T/C (second compound 0.1 µM, first compound 0.316 µM): 87.8%
- viability, T/C (second compound 0.1 µM, first compound 1 µM): 67.8%
- viability, T/C (second compound 0.1 µM, first compound 3.16 µM): 34.7%
- viability, T/C (second compound 0.1 µM, first compound 10 µM): 9.23%
- viability, T/C (second compound 0.316 µM, first compound 0.0316 µM): 92.5%
- viability, T/C (second compound 0.316 µM, first compound 0.1 µM): 93.1%
- viability, T/C (second compound 0.316 µM, first compound 0.316 µM): 86.1%
- viability, T/C (second compound 0.316 µM, first compound 1 µM): 71%
- viability, T/C (second compound 0.316 µM, first compound 3.16 µM): 33.3%
- viability, T/C (second compound 0.316 µM, first compound 10 µM): 9.61%
- viability, T/C (second compound 1 µM, first compound 0.0316 µM): 103%
- viability, T/C (second compound 1 µM, first compound 0.1 µM): 102%
- viability, T/C (second compound 1 µM, first compound 0.316 µM): 88.5%
- viability, T/C (second compound 1 µM, first compound 1 µM): 67.5%
- viability, T/C (second compound 1 µM, first compound 3.16 µM): 31.3%
- viability, T/C (second compound 1 µM, first compound 10 µM): 9%
- viability, T/C (second compound 3.16 µM, first compound 0.0316 µM): 93.9%
- viability, T/C (second compound 3.16 µM, first compound 0.1 µM): 91.3%
- viability, T/C (second compound 3.16 µM, first compound 0.316 µM): 79.3%
- viability, T/C (second compound 3.16 µM, first compound 1 µM): 50%
- viability, T/C (second compound 3.16 µM, first compound 3.16 µM): 26%
- viability, T/C (second compound 3.16 µM, first compound 10 µM): 6.12%
- viability, T/C (second compound 10 µM, first compound 0.0316 µM): 90.3%
- viability, T/C (second compound 10 µM, first compound 0.1 µM): 83.2%
- viability, T/C (second compound 10 µM, first compound 0.316 µM): 58.6%
- viability, T/C (second compound 10 µM, first compound 1 µM): 38%
- viability, T/C (second compound 10 µM, first compound 3.16 µM): 17.8%
- viability, T/C (second compound 10 µM, first compound 10 µM): 2.16%

Compound: O=C(c1cc(Cc2n[nH]c(=O)c3ccccc23)ccc1F)N1CCN(C(=O)C2CC2)CC1
- viability, T/C (compound 0.0316 µM): 99.1% and 93.9%
- viability, T/C (compound 0.1 µM): 96% and 96.3%
- viability, T/C (compound 0.316 µM): 91.3% and 97.4%
- viability, T/C (compound 1 µM): 85.9% and 91.3%
- viability, T/C (compound 3.16 µM): 65.4% and 68.3%
- viability, T/C (compound 10 µM): 33.4% and 36.2%
- IC50 (curve of compound): 5540 nM and 6100 nM

Compound: Nc1ncn(C2CC(O)C(CO)S2)c(=O)n1 (configuration not stated) + NC1CC1c1ccc(-c2cccc(O)c2)cc1
- IC50 [1]: > 300 nM
- IC50 [2]: > 300 nM
- IC50 [3]: > 300 nM
- IC50 [4]: 289 nM
- IC50 [5]: > 300 nM
- viability, T/C (second compound 0.1 µM, first compound 0.000949 µM): 115%
- viability, T/C (second compound 0.1 µM, first compound 0.003 µM): 111%
- viability, T/C (second compound 0.1 µM, first compound 0.00949 µM): 99.4%
- viability, T/C (second compound 0.1 µM, first compound 0.03 µM): 91.2%
- viability, T/C (second compound 0.1 µM, first compound 0.0949 µM): 71%
- viability, T/C (second compound 0.1 µM, first compound 0.3 µM): 51.3%
- viability, T/C (second compound 0.316 µM, first compound 0.000949 µM): 120%
- viability, T/C (second compound 0.316 µM, first compound 0.003 µM): 110%
- viability, T/C (second compound 0.316 µM, first compound 0.00949 µM): 99.7%
- viability, T/C (second compound 0.316 µM, first compound 0.03 µM): 86.4%
- viability, T/C (second compound 0.316 µM, first compound 0.0949 µM): 73.1%
- viability, T/C (second compound 0.316 µM, first compound 0.3 µM): 54.4%
- viability, T/C (second compound 1 µM, first compound 0.000949 µM): 110%
- viability, T/C (second compound 1 µM, first compound 0.003 µM): 106%
- viability, T/C (second compound 1 µM, first compound 0.00949 µM): 103%
- viability, T/C (second compound 1 µM, first compound 0.03 µM): 90.1%
- viability, T/C (second compound 1 µM, first compound 0.0949 µM): 79.4%
- viability, T/C (second compound 1 µM, first compound 0.3 µM): 54.8%
- viability, T/C (second compound 3.16 µM, first compound 0.000949 µM): 106%
- viability, T/C (second compound 3.16 µM, first compound 0.003 µM): 103%
- viability, T/C (second compound 3.16 µM, first compound 0.00949 µM): 104%
- viability, T/C (second compound 3.16 µM, first compound 0.03 µM): 89%
- viability, T/C (second compound 3.16 µM, first compound 0.0949 µM): 72.1%
- viability, T/C (second compound 3.16 µM, first compound 0.3 µM): 49.1%
- viability, T/C (second compound 10 µM, first compound 0.000949 µM): 107%
- viability, T/C (second compound 10 µM, first compound 0.003 µM): 100%
- viability, T/C (second compound 10 µM, first compound 0.00949 µM): 97.2%
- viability, T/C (second compound 10 µM, first compound 0.03 µM): 96.3%
- viability, T/C (second compound 10 µM, first compound 0.0949 µM): 69.2%
- viability, T/C (second compound 10 µM, first compound 0.3 µM): 50.4%
